Data set [1] deals with T1, N-terminal site of human angiotensin-converting enzyme (Active N-terminal ACE) (Homo sapiens, UniProt P12821, H988K/H992K).
T1 construct: made in house; host or cells: CHO cells
The data set is described as follows: ACE inhibition, quenched fluorescence substrate, N-terminal mutant (C-terminal site inactive). The format is biochemical. Conditions: for degree of selectivity in favour of the N-terminal site (FIG. 3): N-terminal site at 100 nM, C-terminal site at 5 μM. As to the method:
(§1) Said mixtures were evaluated at final peptide concentrations of 200 nM in order to determine their ACE inhibitory capacity. To assay ACE, a new quenched fluorescence ACE substrate (Mca-Ala-Ser-Asp-Lys-Dpa) was developed, where Mca represents methoxy coumarine and Dpa 2-(N-dinitrophenyl)aminopropionic acid. Said substrate, which is […], emits an intense fluorescent signal after splitting, between the Asp and Lys residues, by ACE. Using this type of substrate, it is possible to test the inhibitory power of a very large number of compounds in Elisa plates.
(§2) The inhibitory power of the compounds is determined in a conventional competition test based on the breakdown of the quenched fluorescence substrate […]. The breakdown of said substrate by ACE results in the observation of a fluorescent signal at 400 nm, when the sample is excited at 328 nm. The inhibition experiments are conducted in Elisa plate wells, in volumes of 200 μl of buffer: pH 6.8, 50 mM Hepes, 200 mM NaCl, 1 mM ZnCl2, at 25° C., in a Dynatech Fluorolite 1000 type unit. The concentration of the substrate in a typical experiment is 20 μM. For the inhibition experiments, the inhibitor is placed in the presence of the enzyme for 45 min, and the reaction is then initiated by simply adding a very small volume of substrate. The inhibition percentages are calculated from the initial rate variations in the presence of inhibitor. The breakdown kinetics were determined from the record of the fluorescence variations over a 40 min time interval.
(§3) Said mutants were produced from CHO cells.

For data set [2], the target named is T2, C-terminal site of human angiotensin-converting enzyme (Active C-terminal ACE) (Homo sapiens, UniProt P12821, H390K/H394K).
T2 construct: made in house; host or cells: CHO cells
The data set is described as follows: ACE inhibition, quenched fluorescence substrate, C-terminal mutant (N-terminal site inactive). Particulars: C-terminal mutant of ACE from CHO cells. Format: biochemical. As to the method:
as §1, §2, §3

Data set [3] has as its system plasma AcSDKP. Particulars: single dose, healthy volunteer subjects; cited from earlier work.
Data set [4] deals with plasma renin. The data set is described as follows: Plasma renin level (angiotensin I formed) after infusion. Conditions: mice; RXP 407 0.1, 1, 10 mg/kg; Lisinopril 10 mg/kg. The format is in vivo. As to the method:
In this example, the effect of RXP 407 on the levels of renin, another enzyme involved in arterial pressure regulation, is determined. Inhibition of ACE with a conventional inhibitor of said enzyme stops the hydrolysis of angiotensin I into angiotensin II. Angiotensin is indeed one of the physiological substrates of ACE. The decrease in the angiotensin II level in plasma by a retrocontrol mechanism, increases the plasma level of renin, an enzyme directly involved in the production of angiotensin I, from angiotensinogen.
In this way, the inhibition of ACE may be monitored indirectly by the plasma renin level.
This level may be evaluated by the capacity of renin in plasma samples to hydrolyse excess angiotensinogen present in mouse plasma. The formation of angiotensin I is then measured by a radioimmunological assay and the renin level is expressed in ng of angiotensin I formed per ml of plasma and per hour of incubation.

Data set [5] concerns ACE N-terminal domain versus C-terminal domain. Particulars: in vitro; cited from earlier work.
For data set [6], the target named is T3, wild human ACE (Homo sapiens, UniProt P12821).
T3 construct: made in house; host or cells: CHO cells
The data set is described as follows: Inhibition of natural ACE as a function of RXP 407 concentration. The format is biochemical. Conditions: wild human ACE from CHO cells. As to the method: as §2
In this example, the RXP 407 peptide is used as a natural ACE inhibitor, and the effect of the RXP 407 concentration (in nM) on the ACE inhibition percentage is studied.
The inhibitory power of the compound is determined as in example 1 using wild human ACE produced by CHO cells according to the protocol described in the reference Wei et al, J. Biol. Chem. (1992) 267, 13398-13405 [14].

Data set [7] is described as follows: Plasma concentration of tritiated RXP 407 after intravenous bolus. Further details: species or system rats. Conditions: rat, in vivo, 5 mg/kg. As to the method: (§4) For this purpose, an RXP 407 comprising three tritium atoms on the N-acetyl group is synthesised to be able to conduct a study on the pharmacokinetics and metabolism of said molecule in rats, by injecting said product at doses of 0.1, 1 and 5 mg/kg by intravenous bolus.
The plasma concentration of RXP 407 as a function of time is then determined.
The results obtained are represented in FIG. 7. Curve 1 corresponds to 0.1 mg/kg, curve 2 to 1 mg/kg and curve 3 to 5 mg/kg. The dotted curve illustrates the Ki of RXP 407 (20 nM).

Data set [8] in a line: Elimination and metabolism of tritiated RXP 407 in vivo. Further details: species or system rats. Particulars: rat. As to the method: as §4
In data set [9] the test system is plasma Ac-Ser-Asp-Lys-Pro (Ac-SDKP). The data set is described as follows: Plasma Ac-SDKP concentration after 30 minute infusion. Conditions: mice, infusion for 30 minutes; RXP 407 0.1, 1, 10 mg/kg; Lisinopril 10 mg/kg. The format is in vivo. As to the method: For this purpose, the mice undergo an infusion of RXP 407 for 30 minutes, at doses of 0.1, 1 and 10 mg/kg and the Ac-Ser-Asp-Lys-Pro-(Ac-SDKP) peptide concentration of the mouse plasma is determined.
The Ac-Ser-Asp-Lys-Pro is determined by a competition immunoenzyme assay using polyclonal antibodies and Ac-SDKP linked to Electrophorus Electricus acetyicholinesterase.
The same plasma Ac-SDKP measurements are made on mice infused with Lisinopril of a 10 mg/kg dose and on non-infused control mice. Lisinopril is an inhibitor used in clinical practice which inhibits both active sites of ACE non-selectively.

[10] abbreviates: N-terminal mutant of ACE from CHO cells, read-out: Ki Active N-terminal ACE.

Where two headings read alike, the source gives them in different places. Where a SMILES comes first, the peptide text is derived from it.

T1 sequence (P12821 30-1306 H988K/H992K): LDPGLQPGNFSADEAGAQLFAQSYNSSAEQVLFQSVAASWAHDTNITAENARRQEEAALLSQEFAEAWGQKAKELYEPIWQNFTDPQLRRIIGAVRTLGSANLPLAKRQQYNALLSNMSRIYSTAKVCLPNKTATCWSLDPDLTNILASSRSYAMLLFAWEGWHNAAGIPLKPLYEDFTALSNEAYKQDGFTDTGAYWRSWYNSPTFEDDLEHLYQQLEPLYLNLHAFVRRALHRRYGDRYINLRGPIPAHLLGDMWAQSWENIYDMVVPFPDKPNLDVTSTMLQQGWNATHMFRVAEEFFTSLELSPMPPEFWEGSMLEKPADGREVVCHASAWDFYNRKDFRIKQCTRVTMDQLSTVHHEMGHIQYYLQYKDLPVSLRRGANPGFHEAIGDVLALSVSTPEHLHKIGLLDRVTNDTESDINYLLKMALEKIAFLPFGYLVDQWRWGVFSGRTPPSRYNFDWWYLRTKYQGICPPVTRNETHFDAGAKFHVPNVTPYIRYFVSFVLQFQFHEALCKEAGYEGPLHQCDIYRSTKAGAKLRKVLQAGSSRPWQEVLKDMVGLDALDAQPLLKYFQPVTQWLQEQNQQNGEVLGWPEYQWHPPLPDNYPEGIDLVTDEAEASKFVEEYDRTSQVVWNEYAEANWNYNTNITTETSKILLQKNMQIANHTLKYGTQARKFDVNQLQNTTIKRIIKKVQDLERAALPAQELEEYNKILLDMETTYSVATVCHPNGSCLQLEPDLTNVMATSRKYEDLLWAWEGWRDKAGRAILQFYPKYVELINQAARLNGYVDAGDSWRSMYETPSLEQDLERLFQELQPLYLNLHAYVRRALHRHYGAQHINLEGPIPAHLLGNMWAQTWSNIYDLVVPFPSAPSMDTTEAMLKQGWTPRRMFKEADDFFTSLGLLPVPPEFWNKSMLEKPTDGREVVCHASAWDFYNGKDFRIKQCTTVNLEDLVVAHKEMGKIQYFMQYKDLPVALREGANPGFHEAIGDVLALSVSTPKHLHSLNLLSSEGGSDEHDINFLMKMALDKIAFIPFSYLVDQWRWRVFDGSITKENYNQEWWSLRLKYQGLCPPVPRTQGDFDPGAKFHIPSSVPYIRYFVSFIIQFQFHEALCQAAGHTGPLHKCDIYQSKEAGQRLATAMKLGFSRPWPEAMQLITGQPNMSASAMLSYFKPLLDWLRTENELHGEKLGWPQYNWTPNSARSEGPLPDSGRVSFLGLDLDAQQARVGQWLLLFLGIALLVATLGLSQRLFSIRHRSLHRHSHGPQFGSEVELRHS
T2 sequence (P12821 30-1306 H390K/H394K): as the sequence (P12821 30-1306 H988K/H992K) above, with H361K, H365K, K959H, K963H counted along it
T3 sequence (P12821 30-1306): as the sequence (P12821 30-1306 H988K/H992K) above, with K959H, K963H counted along it

As usually defined, the Ki is the equilibrium dissociation constant of an inhibitor or competing ligand from its target. With `CC(=O)N[C@@H](CC(=O)O)C(=O)NC(Cc1ccccc1)P(=O)(O)CC(C)C(=O)N[C@@H](C)C(=O)O` (stereo partly shown) [Ac-Asp-Pheψ (PO2CH2) Ala-AlaOH], the Ki in data set [1] (setting [10]) was 2 nM; in [2], 7 nM.
On to `CC(=O)N[C@@H](CC(=O)O)C(=O)NC(Cc1ccccc1)P(=O)(O)CC(C)C(=O)N[C@@H](C)C(N)=O` (stereo partly drawn) [Ac-Asp-Pheψ (PO2CH2) Ala-AlaNH2, Ac-Asp-PheΨ(PO2CH2)Ala-Ala-NH2], for which, in [1] (setting [10]), the Ki came to 25 nM. In data set [1], the “degree of selectivity in favour of the N-terminal site (FIG. 3)” value is reported as “improve the degree of selectivity in favour of the N-terminal site”.
Turning to `C[C@H](CS)C(=O)N1CCC[C@H]1C(=O)O` [captopril], the “increase of the plasma level of AcSDKP” value in data set [3] was 6 to 7 fold.
For `CC(CP(=O)(O)C(Cc1ccccc1)NC(=O)[C@@H](N)CC(=O)O)C(=O)N[C@@H](C)C(N)=O` (stereo partly shown) [H2N-Asp-Pheψ (PO2CH2) Ala-AlaNH2], the Ki came to 5 nM in data set [1] (setting [10]) and 800 nM in data set [2].
For `CC(CP(=O)(O)C(Cc1ccccc1)NC(=O)[C@@H](N)CC(=O)O)C(=O)N[C@@H](C)C(=O)O` (stereo partly shown) [H2N-Asp-Pheψ (PO2CH2) Ala-AlaOH], in that order: 2 nM and 60 nM.
`NCCCC[C@H](N[C@@H](CCc1ccccc1)C(=O)O)C(=O)N1CCC[C@H]1C(=O)O` [Lisinopril, reference compound]: the “plasma renin level (FIG. 9)” value in data set [4] is “induces an increase in the plasma renin level”.
Regarding `CC(=O)N[C@@H](CO)C(=O)N[C@@H](CC(=O)O)C(=O)N[C@@H](CCCCN)C(=O)N1CCC[C@H]1C(=O)O` [AcSDKP, N-Acetyl-Seryl-Aspartyl-Lysyl-Proline] (Ac-SDKP-OH), the “hydrolysed more quickly by the N-terminal domain than by the C-terminal domain” value in data set [5] is recorded as 50 times.
On to `CC(=O)N[C@@H](CC(=O)O)C(=O)N[C@@H](Cc1ccccc1)P(=O)(O)C[C@@H](C)C(=O)N[C@@H](C)C(N)=O` [RXP 407, Ac-Asp-(R)Phe(PO2CH2)-(S)Ala-Ala-NH2], for which, in data set [1] (setting [10]), the Ki was determined as 12 nM. Further, in data set [1] (value drawn in plasma concentration figure, read-out: Ki of RXP 407 (dotted curve of FIG. 7)), the Ki amounted to 20 nM. Further, the “IC50 values with respect to the N and C-terminal sites of natural ACE (inflection points, FIG. 6)” value in data set [6] is reported as “compatible with the Ki values measured using the ACE mutants”. Moreover, the “plasma RXP 407 concentration” value in data set [7] worked out at 100 ng/mL. Besides, in [8], the Total is 100.09±7 % of injected radioactivity; the eliminated in urine turned out to be 87%; the “metabolism (structure of the product in urine and faeces)” value is given as “does not undergo any metabolism”; the “product detected in the airways” value was “No trace of this product is detected”. The dose excreted in data set [8] (iv, total radioactivity) is 13%. The “plasma level of Ac-SDKP peptide (FIG. 8)” value in [9] is “very significant increase”. In addition, the “plasma renin level (FIG. 9)” value in data set [4] is given as “does not induce an increase in renin”.
Take `CC(=O)N[C@@H](C)C(=O)NC(Cc1ccccc1)P(=O)(O)CC(C)C(=O)N[C@@H](C)C(N)=O` (stereo partly shown) [Ac-Ala-Pheψ (PO2CH2) Ala-AlaNH2]: the Ki in data set [1] (setting [10]) was 15 nM; in data set [2] it was 200 nM.
proline: the “degree of selectivity in favour of the N-terminal site (FIG. 3)” value in [1] is reported as “improve the degree of selectivity in favour of the N-terminal site”.

(Values after patent publication US6482797B1, “N-terminal site selective inhibitors of human angiotensin conversion enzyme (ACE)” (Commissariat A l'Energie Atomique, priority 1998, dated 2002).)
